Test results published in patent US20110136897A1, “TOLL-LIKE RECEPTOR 9 AGONISTS FOR THE TREATMENT OF ANXIETY-RELATED DISORDERS AND INFLAMMATORY DISORDERS” (YISSUM RESEARCH DEVELOPMENT COMPANY OF THE HEBREW …, priority 2008, published 2011).
“Also recorded” adds a separate entry of the source.

Columns and labels:
RAW264.7 cells [1] = experiment: LPS-induced NO production with or without corticosterone after ODN1826 pre-incubation; assay type: cell-based, mouse; settings: 24 hours before LPS 1 μg/ml with corticosterone
Method: Determination of nitric oxygen (NO) production: The nitrite concentration in the medium was measured as an indicator of NO production according to the Griess reaction. 1×10^5 RAW264.7 cells were grown in 0.5 ml medium in 48-wells plate until 80% confluence was obtained. […] (1% sulfanilamide, 0.1% naphthylethylenediamine dihydrochloride, 5% H3PO4). Absorbance was read at 540 nm after 10 minutes using SPECTRAFluor Plus spectrophotometer (TECAN, UK).
In order to study the functional effects of TLR9 activation on GR signaling, RAW264.7 cells were incubated with varying concentrations of ODN1826 (SEQ ID NO: 2) for 24 hours and the medium was replaced with one containing LPS (1 μg/ml) with or without […] corticosterone (CORT) for an additional 24 hours. As expected, CORT blocked lipopolysaccharide (LPS)-induced NO production.

RAW264.7 cells [2] = experiment: Nitric oxide (NO) production, Griess reaction; assay type: cell-based, mouse; settings: 24 hours
Method: The mouse macrophage cell line RAW 264.7 (ATCC, Bethesda, Md.) was cultured in Dulbecco's modified Eagle's medium (DMEM) (Biological Industries) supplemented with 10% heat-inactivated fetal bovine serum (Biological Industries, Israel), 100 μg/ml streptomycin, 100 U/ml penicillin (Sigma) and 2 mM 1-glutamine (Biological Industries) at 37° C. in a humidified atmosphere with 5% CO2.
Determination of nitric oxide (NO) production: Nitrite concentration in the medium of cultured cells was measured as an indicator of NO production according to the Griess reaction. 1×10^5 mouse RAW264.7 cells were grown in 0.5 ml medium in 48-wells plate until 80% confluence was obtained. […] (1% sulfanilamide, 0.1% naphthylethylenediamine dihydrochloride, 5% H3PO4). Absorbance was read at 540 nm after 10 min using SPECTRAFluor Plus spectrophotometer (TECAN, UK).
To further characterize the TLR9 activating features of mEN101, mEN101 was applied to RAW264.7 cells (n=4 repeats) for 24 hours and the subsequent production of inflammatory markers was quantified. […] Addition of chloroquine (CQ), a weak base that perturbs endosomal pH and thus disturbs endosomal maturation, as well as the specific TLR9 inhibiting oligonucleotides ODN2088 and ODN TTAGGG (17), all blocked the 10 μM mEN101-driven increases in NO (p<0.015) (FIG. 2A). Thus, both gain and loss of function tests validated the nature of mEN101 as an endosomally active TLR9 activator, albeit a weak one.

FVB/N mice [3] = experiment: Predator (cat) odor stress paradigm, elevated plus maze (EPM) and acoustic startle response (ASR) one week post-exposure; assay type: in vivo, mouse
Method: Animals: FVB/N or adult TLR9 −/− mice and strain-matched wild type C57/B6J mice were housed four per cage, with constant temperature (21±1° C.), a 12 hour light/dark cycle, free access to food and water and habituation to the housing conditions by daily handling. Experiments were performed 1 week after arrival in the animal facility.
Behavioral paradigms: Mice were placed for 10 minutes on well-soiled cat litter (in use by the cat for 2 days, sifted for stools). One week after exposure, animals were tested according to Cohen et al. (2005) Biol Psychiatry 58, 640 in the elevated plus maze (EPM) and the acoustic startle response (ASR) paradigms. The EPM is a plus-shaped platform with two opposing open arms and two opposing closed arms (surrounded by 14-cm high opaque walls on three sides). Mice were placed on the central platform and were allowed to explore the maze for 5 min. […]
Startle response was measured using two ventilated startle chambers (SR-LAB System, San Diego Instruments, San Diego, Calif.). Each Plexiglas cylinder rests on a platform inside a sound-attenuated, ventilated chamber. Startle sessions started with a 5-minute acclimatization period to a background of 68 dB white noise, followed by 30 acoustic startle stimuli (110 dB white noise of 40 ms duration with 30 s or 45 s inter-trial interval). Startle amplitude was averaged over all 30 trials, and percent habituation was calculated as the percent difference between the response to the first block of stimuli and to the last one.
Animals were randomly divided into 5 groups. The following daily treatments initiated immediately before stressor exposure and for a total of four consecutive days: saline, 50 μg/kg ODN1826, 50 μg/kg mEN101, 50 μg/kg μg mEN101 and 500 μg/kg μg ODN2088. Oligonucleotides were delivered in 300 μl 0.9% NaCl solution (Teva, Israel). A control group was exposed to fresh, unused litter. Animals were sacrificed and brains dissected on day 1 2 h after the stressor, on day 4 2 h after the last injection, or on day 7 2 h after the behavioral tests, as noted.
To challenge the hypothesis that TLR9 activation modulates psychological stress reactions, mice were exposed to the predator odor stress paradigm (Cohen, H., Zohar, J., Matar, M. A., Kaplan, Z. & Geva, A. B. (2005) Biol Psychiatry 58, 640-50) and treated them with TLR9 activating or blocking oligonucleotides and with a known stress-suppressing oligonucleotide, mEN101. One week post-exposure, treated mice were tested for avoidance behavior and hyper-arousal in the elevated plus maze (EPM) and acoustic startle response (ASR) tests, respectively (FIG. 1B). […] They also presented greater startle amplitude (F5,103=10.75, p<0.0001; p<0.0001) and decreased startle habituation ([…]; p<0.0001) than control mice (FIG. 1C). The traumatic experience conferred varied impacts in the exposed mice, ranging from drastically maladaptive behavior to generally unmodified response patterns.

FVB/N mice [4] = experiment: as above; assay type: in vivo, mouse; remark: listed apart in the source

5′-TCCATGACGTTCCTGACGTT-3′ [ODN1826, reference compound]
effect on LPS-induced NO production / cell activation (RAW264.7 cells [1]; higher doses (10-100 nM)): increased cell activation
effect on CORT inhibition of LPS-induced NO production (RAW264.7 cells [1]; low doses (0.01-1 nM)): potentiated CORT anti-inflammatory effect
concentration reaching saturation levels of NO production (RAW264.7 cells [2]): 100 nM
lowest concentration inducing massive NO production (RAW264.7 cells [2]): 10 nM
anxiety index (AI) (FVB/N mice [3]; 50 μg/kg (high dose for ODN1826), compared to saline injected stressed mice): significantly increased AI
stress-induced anxiety scores (EPM score, startle response, habituation to startle) (FVB/N mice [3]; 50 μg/kg i.p. daily for 4 consecutive days, tested day 7, compared to saline-treated stressed mice): increased stress-induced anxiety scores; also recorded: slightly anxiogenic behavior
stress-induced anxiety scores (EPM score, startle response, habituation to startle) (FVB/N mice [4]; 0.5 μg/kg i.p. daily for 4 days, tested day 7, compared to stressed mice): diminished stress-induced anxiety scores; also recorded: lower EPM scores
anxiety index (AI) (FVB/N mice [4]; low dose (0.5 μg/kg), compared to saline injected stressed mice): decreased it
